{"source": "ChEMBL document CHEMBL4024761", "about": "“Protac-Induced Protein Degradation in Drug Discovery: Breaking the Rules or Just Making New Ones?” (J Med Chem, 2018)", "key": {"[1]": {"biological_target": "von Hippel-Lindau disease tumor suppressor (Homo sapiens, UniProt P40337)", "sequence (P40337 whole entry)": "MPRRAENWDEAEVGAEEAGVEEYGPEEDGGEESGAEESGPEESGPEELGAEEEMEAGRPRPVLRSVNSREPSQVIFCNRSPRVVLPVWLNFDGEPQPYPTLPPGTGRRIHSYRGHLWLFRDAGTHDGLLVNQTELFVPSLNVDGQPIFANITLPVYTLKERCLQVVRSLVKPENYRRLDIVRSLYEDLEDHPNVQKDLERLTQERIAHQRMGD", "assay": "Binding affinity to VHL (unknown origin) assessed as reduction of HIF1alpha derived peptide binding to VHL complex by competitive binding fluorescence polarization assay"}, "[2]": {"biological_target": "von Hippel-Lindau disease tumor suppressor/Receptor-interacting serine/threonine-protein kinase 2 (Homo sapiens, UniProt O43353+P40337)", "sequence (O43353 whole entry)": "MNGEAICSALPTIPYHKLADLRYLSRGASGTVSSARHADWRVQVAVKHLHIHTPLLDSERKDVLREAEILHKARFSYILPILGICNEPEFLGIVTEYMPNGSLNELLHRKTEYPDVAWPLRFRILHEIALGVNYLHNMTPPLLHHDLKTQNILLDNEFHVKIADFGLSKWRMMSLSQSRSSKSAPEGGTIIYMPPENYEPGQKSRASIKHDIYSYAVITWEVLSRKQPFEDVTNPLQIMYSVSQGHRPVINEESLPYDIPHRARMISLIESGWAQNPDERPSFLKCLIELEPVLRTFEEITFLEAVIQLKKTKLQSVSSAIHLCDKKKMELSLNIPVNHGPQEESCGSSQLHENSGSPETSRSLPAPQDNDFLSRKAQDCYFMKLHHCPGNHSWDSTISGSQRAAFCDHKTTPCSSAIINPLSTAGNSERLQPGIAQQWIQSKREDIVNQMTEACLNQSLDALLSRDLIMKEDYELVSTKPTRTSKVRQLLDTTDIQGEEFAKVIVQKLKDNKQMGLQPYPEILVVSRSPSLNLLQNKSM", "sequence (P40337 whole entry)": "as the sequence (P40337 whole entry) above", "assay": "Proteolysis targeting chimera activity in human THP1 cells assessed as induction of VHL-mediated delivery of RIPK2 for protein degradation by proteasome by measuring drug level causing 50% cellular protein depletion incubated for 16 hrs by Western blotting method", "type": "cell-based"}}}
{"compound": "Cc1ncsc1-c1ccc(CNC(=O)[C@@H]2C[C@@H](O)CN2C(=O)[C@@H](NC(=O)COCCOCCOCCOCCOc2cc3nccc(Nc4ccc5scnc5c4)c3cc2S(=O)(=O)C(C)(C)C)C(C)(C)C)cc1", "values": [{"measurement": "Kd", "setting": "[1]", "result": 500, "unit": "nM"}, {"measurement": "DC50", "setting": "[2]", "result": 1, "unit": "nM"}]}
